Measurements published in ChEMBL document CHEMBL4765407, “Design, synthesis and high antitumor potential of new unsymmetrical bisacridine derivatives towards human solid tumors, specifically pancreatic cancers and their unique ability to stabilize DNA G-quadruplexes” (Eur J Med Chem, 2020).

Columns and labels:
[1] = system: DU-145; test: Cytotoxicity against human DU-145 cells assessed as reduction in cell viability measured after 72 hrs by SRB assay; type: functional, cell-based; details: DU-145, 72 h
[2] = system: HT-29; test: Cytotoxicity against human HT-29 cells assessed as reduction in cell viability measured after 72 hrs by SRB assay; type: functional, cell-based; details: HT-29, 72 h
[3] = system: NCI-H460; test: Cytotoxicity against human NCI-H460 cells assessed as reduction in cell viability measured after 72 hrs by SRB assay; type: functional, cell-based; details: NCI-H460, 72 h
[4] = system: HCT-116; test: Cytotoxicity against human HCT-116 cells assessed as reduction in cell viability measured after 72 hrs by SRB assay; type: functional, cell-based; details: HCT-116, 72 h
[5] = system: UMUC3; test: Cytotoxicity against human UMUC3 cells assessed as reduction in cell viability measured after 72 hrs by SRB assay; type: functional, cell-based; details: UMUC3, 72 h
[6] = system: PANC-1; test: Cytotoxicity against human PANC-1 cells assessed as reduction in cell viability measured after 72 hrs by SRB assay; type: functional, cell-based; details: PANC-1, 72 h
[7] = system: W256; test: Antitumour activity against Walker 256 adenocarcinoma cells implanted in Wistar rat assessed as increase in animal survival rate by measuring T/C ratio at 5 mg/kg, ip qd for 3 days administered on day 3,4,5 after tumor cell transplantation; type: functional; details: time 3 day
[8] = system: HCT-116; test: Antitumour activity against human HCT-116 cells xenografted in Crl:Nu-Foxnl nu mouse assessed as inhibition of tumour growth at total effective dose of 100 mg/kg, ip measured on day 23; type: functional; details: HCT-116, ip, 552 h, time 23 day, read-out: TGI
[9] = system: Quadruplex DNA; test: Stabilization of 5'-FAM/3'-TAMRA labeled c-Myc promoter G4 quadruplex DNA FPu18 (unknown origin) assessed as change in melting temperature at 10 microM measured after 15 mins by FRET assay; type: nucleic-acid assay
[10] = system: Quadruplex DNA; test: Stabilization of 5'-FAM/3'-TAMRA labeled telomeric G4 quadruplex DNA F21T (unknown origin) assessed as change in melting temperature at 10 microM measured after 15 mins by FRET assay; type: nucleic-acid assay
[11] = system: Quadruplex DNA; test: Stabilization of 5'-FAM/3'-TAMRA labeled K-Ras G4 quadruplex DNA (unknown origin) assessed as change in melting temperature at 10 microM measured after 15 mins by FRET assay; type: nucleic-acid assay
[12] = Stabilization of ds 5'-FAM-d(TATAGCTATA-HEG-TATAGCTATA)-TAMRA-3' (unknown origin) assessed as change in melting temperature at 10 microM measured after 15 mins by FRET assay; details: Homo sapiens
[13] = system: PC-3; test: Cytotoxicity against human PC-3 cells assessed as reduction in cell viability measured after 72 hrs by SRB assay; type: functional, cell-based; details: PC-3, 72 h
[14] = system: MIA PaCa-2; test: Cytotoxicity against human MIA PaCa-2 cells assessed as reduction in cell viability measured after 72 hrs by SRB assay; type: functional, cell-based; details: MIA PaCa-2, 72 h
[15] = system: W256; test: Antitumour activity against Walker 256 adenocarcinoma cells implanted in Wistar rat assessed as increase in animal survival rate by measuring T/C ratio at 20 mg/kg, ip qd for 3 days administered on day 3,4,5 after tumor cell transplantation; type: functional; details: time 3 day
[16] = system: NCI-H460; test: Antitumour activity against human NCI-H460 cells xenografted in Crl:Nu-Foxnl nu mouse assessed as inhibition of tumour growth at total effective dose of 60 mg/kg, iv measured on day 17; type: functional; details: 408 h, time 17 day, read-out: TGI
[17] = system: PANC-1; test: Antitumour activity against human PANC-1 cells xenografted in Crl:Nu-Foxnl nu mouse assessed as inhibition of tumour growth at total effective dose of 30 mg/kg, iv measured on day 45; type: functional; details: PANC-1, iv, 1080 h, time 45 day, read-out: TGI
[18] = system: PANC-1; test: Antitumour activity against human PANC-1 cells xenografted in Crl:Nu-Foxnl nu mouse assessed as inhibition of tumour growth at total effective dose of 10 mg/kg, iv measured on day 37; type: functional; details: PANC-1, iv, 888 h, time 37 day, read-out: TGI
[19] = system: PC-3; test: Antitumour activity against human PC-3 cells xenografted in Crl:Nu-Foxnl nu mouse assessed as inhibition of tumour growth at total effective dose of 8 mg/kg, iv measured on day 39; type: functional; details: PC-3, iv, 936 h, time 39 day, read-out: TGI
[20] = system: MCF7; test: Cytotoxicity against human MCF7 cells assessed as reduction in cell viability measured after 72 hrs by SRB assay; type: functional, cell-based; details: MCF7, 72 h
[21] = system: MDA-MB-231; test: Cytotoxicity against human MDA-MB-231 cells assessed as reduction in cell viability measured after 72 hrs by SRB assay; type: functional, cell-based; details: MDA-MB-231, 72 h
[22] = system: ASPC1; test: Cytotoxicity against human ASPC1 cells assessed as reduction in cell viability measured after 72 hrs by SRB assay; type: functional, cell-based; details: ASPC1, 72 h
[23] = system: W256; test: Antitumour activity against Walker 256 adenocarcinoma cells implanted in Wistar rat assessed as increase in animal survival rate by measuring T/C ratio at 2.5 mg/kg, ip qd for 3 days administered on day 3,4,5 after tumor cell transplantation; type: functional; details: time 3 day
[24] = system: DU-145; test: Antitumour activity against human DU-145 cells xenografted in Crl:Nu-Foxnl nu mouse assessed as inhibition of tumour growth at total effective dose of 16 mg/kg, iv measured on day 35; type: functional; details: DU-145, iv, 840 h, time 35 day, read-out: TGI
[25] = system: DU-145; test: Antitumour activity against human DU-145 cells xenografted in Crl:Nu-Foxnl nu mouse assessed as inhibition of tumour growth at total effective dose of 8 mg/kg, iv measured on day 64; type: functional; details: DU-145, iv, 1536 h, time 64 day, read-out: TGI
[26] = system: HCT-116; test: Antitumour activity against human HCT-116 cells xenografted in Crl:Nu-Foxnl nu mouse assessed as inhibition of tumour growth at total effective dose of 18 mg/kg, ip measured on day 14; type: functional; details: HCT-116, ip, 336 h, time 14 day, read-out: TGI
[27] = system: HCT-116; test: Antitumour activity against human HCT-116 cells xenografted in Crl:Nu-Foxnl nu mouse assessed as inhibition of tumour growth at total effective dose of 24 mg/kg, iv measured on day 30; type: functional; details: HCT-116, iv, 720 h, time 30 day, read-out: TGI
[28] = system: NCI-H460; test: Antitumour activity against human NCI-H460 cells xenografted in Crl:Nu-Foxnl nu mouse assessed as inhibition of tumour growth at total effective dose of 48 mg/kg, iv measured on day 23; type: functional; details: 552 h, time 23 day, read-out: TGI

Cc1ccc([N+](=O)[O-])c2c(NCCCN(C)CCCNc3ccc([N+](=O)[O-])c4[nH]c5ccccc5c(=O)c34)c3ccccc3nc12
IC50 [1]: 44 nM | IC50 [2]: 230 nM | IC50 [3]: 55 nM | IC50 [4]: 74 nM | IC50 [5]: 54 nM | IC50 [6]: 110 nM | T/C [7]: 1000% | inhibition in vivo at 100 mg/kg [8]: 52% | ΔTm [9]: 18.8 °C | ΔTm [10]: 6.8 °C | ΔTm [11]: 28.5 °C | ΔTm [12]: 2.4 °C

Cc1ccc([N+](=O)[O-])c2c(NCCCN3CCN(CCCNc4ccc([N+](=O)[O-])c5[nH]c6ccccc6c(=O)c45)CC3)c3ccccc3nc12
IC50 [1]: 41 nM | IC50 [13]: 362 nM | IC50 [3]: 40 nM | IC50 [4]: 83 nM | IC50 [5]: 63 nM | IC50 [6]: 130 nM | IC50 [14]: 108 nM | T/C [15]: 550% | inhibition in vivo at 60 mg/kg [16]: 24% | inhibition in vivo at 30 mg/kg [17]: 72% | inhibition in vivo at 10 mg/kg [18]: 27% | inhibition in vivo at 8 mg/kg [19]: 30% | ΔTm [9]: 19.4 °C | ΔTm [10]: 8.7 °C | ΔTm [11]: 21.6 °C | ΔTm [12]: 2.6 °C

O=c1c2ccccc2[nH]c2c([N+](=O)[O-])ccc(NCCCN3CCN(CCCNc4c5ccccc5nc5cccc([N+](=O)[O-])c45)CC3)c12
IC50 [1]: 11 nM | IC50 [13]: 26 nM | IC50 [3]: 9 nM | IC50 [4]: 20 nM | IC50 [5]: 17 nM | IC50 [20]: 77 nM | IC50 [21]: 28 nM | IC50 [6]: 56 nM | IC50 [14]: 28 nM | IC50 [22]: 78 nM | T/C [23]: 400% | inhibition in vivo at 16 mg/kg [24]: 77% | inhibition in vivo at 8 mg/kg [25]: 81% | inhibition in vivo at 18 mg/kg [26]: 52% | inhibition in vivo at 24 mg/kg [27]: 34% | inhibition in vivo at 48 mg/kg [28]: 60% | ΔTm [9]: 23.7 °C | ΔTm [10]: 8.5 °C | ΔTm [11]: 25.1 °C | ΔTm [12]: 3.2 °C
